According to the NIST ThermoML archive (doi:10.1021/je049960h):
Numbers after ± are expanded uncertainties.

Assay: xn = mol fraction of the nth substance listed
Details: 101.3 kPa, Liquid; for viscosity: Capillary tube (Ostwald / Ubbelohde) method; for mass density: Pycnometric method; for thermal conductivity: Hot wire method

OCCCOCCCO [4-oxa-1,7-heptanediol] + O
Details	mass density [kg/m3]	thermal conductivity [W/m/K]	viscosity [mPa·s]
293.4 K, x1 = 0.5	1034 ± 2	–	59.9 ± 1.2
293.9 K, x1 = 0.75	1028 ± 2	–	88.5 ± 2
295.05 K, x1 = 0.25	1040 ± 2	–	22.3 ± 0.5
297.8 K, x1 = 0.25	–	0.248 ± 0.005	–
297.9 K, x1 = 0.5	–	0.19 ± 0.004	–
298.4 K, x1 = 0.75	–	0.167 ± 0.003	–
313.05 K, x1 = 0.25	1026 ± 2	–	9.14 ± 0.19
313.05 K, x1 = 0.5	1019 ± 2	–	18.6 ± 0.4
313.05 K, x1 = 0.75	1013 ± 2	–	25.8 ± 0.6
323.9 K, x1 = 0.25	–	0.256 ± 0.005	–
324.8 K, x1 = 0.75	–	0.169 ± 0.003	–
324.9 K, x1 = 0.5	–	0.193 ± 0.004	–
333.1 K, x1 = 0.25	1010 ± 2	–	4.3 ± 0.09
333.1 K, x1 = 0.5	1003 ± 2	–	7.68 ± 0.16
333.1 K, x1 = 0.75	997 ± 2.1	–	9.71 ± 0.21
349.3 K, x1 = 0.5	–	0.195 ± 0.004	–
349.9 K, x1 = 0.25	–	0.26 ± 0.005	–
350.1 K, x1 = 0.75	–	0.167 ± 0.003	–
353.1 K, x1 = 0.25	992.8 ± 2	–	2.42 ± 0.05
353.1 K, x1 = 0.5	986 ± 2	–	3.89 ± 0.08
353.1 K, x1 = 0.75	980.5 ± 2	–	4.71 ± 0.1
368.25 K, x1 = 0.25	979.2 ± 2	–	1.72 ± 0.04
372.2 K, x1 = 0.5	969.5 ± 2	–	2.33 ± 0.05
372.2 K, x1 = 0.75	964.3 ± 2	–	2.73 ± 0.06
374 K, x1 = 0.25	–	0.264 ± 0.005	–
374.9 K, x1 = 0.5	–	0.196 ± 0.004	–
375.1 K, x1 = 0.75	–	0.169 ± 0.003	–
378.75 K, x1 = 0.25	–	–	1.41 ± 0.03
382.5 K, x1 = 0.5	960.1 ± 2	–	1.85 ± 0.04
382.5 K, x1 = 0.75	955.2 ± 2	–	2.14 ± 0.05
392.3 K, x1 = 0.75	946.2 ± 2	–	1.72 ± 0.04
392.4 K, x1 = 0.5	951 ± 2	–	1.53 ± 0.03
394.25 K, x1 = 0.5	949.4 ± 2	–	–
395.75 K, x1 = 0.5	–	–	1.45 ± 0.03
395.95 K, x1 = 0.25	953.1 ± 2	–	–
397.45 K, x1 = 0.25	–	–	0.983 ± 0.021
398.6 K, x1 = 0.25	–	0.263 ± 0.005	–
398.9 K, x1 = 0.5	–	0.195 ± 0.004	–
399 K, x1 = 0.75	–	0.169 ± 0.003	–
402.3 K, x1 = 0.75	936.9 ± 2	–	1.43 ± 0.03
405.35 K, x1 = 0.75	934.5 ± 2	–	–
406.85 K, x1 = 0.75	–	–	1.33 ± 0.03
407.85 K, x1 = 0.5	936.8 ± 1.9	–	–
408.35 K, x1 = 0.25	941.3 ± 1.9	–	–
410.85 K, x1 = 0.5	–	–	1.11 ± 0.02
411.35 K, x1 = 0.25	–	–	0.803 ± 0.017
418.35 K, x1 = 0.75	923 ± 1.9	–	–
421.35 K, x1 = 0.75	–	–	1.05 ± 0.02
423.8 K, x1 = 0.25	–	0.264 ± 0.005	–
424.3 K, x1 = 0.75	–	0.167 ± 0.003	–
424.4 K, x1 = 0.5	–	0.193 ± 0.004	–
426.35 K, x1 = 0.5	918.8 ± 1.9	–	–
426.75 K, x1 = 0.25	922.7 ± 1.9	–	–
429.35 K, x1 = 0.5	–	–	0.829 ± 0.017
429.75 K, x1 = 0.25	–	–	0.63 ± 0.013
437.25 K, x1 = 0.75	904.2 ± 1.9	–	–
440.25 K, x1 = 0.75	–	–	0.795 ± 0.017
444.65 K, x1 = 0.25	904.1 ± 1.9	–	–
445.25 K, x1 = 0.5	899.1 ± 1.9	–	–
447.65 K, x1 = 0.25	–	–	0.512 ± 0.011
448.25 K, x1 = 0.5	–	–	0.64 ± 0.014
448.8 K, x1 = 0.5	–	0.187 ± 0.004	–
448.9 K, x1 = 0.75	–	0.163 ± 0.003	–
455.15 K, x1 = 0.75	887.2 ± 1.9	–	–
458.15 K, x1 = 0.75	–	–	0.641 ± 0.014
